Values after ≈ are worked out from the molar mass of the structure shown. Positions of bridges follow the written chain, without caps; N, C: chain ends. Non-standard residues stand in square brackets, D forms with d. Residues, ends and D or L forms follow the SMILES beside them. *: point of attachment. Palmitoyl = CCCCCCCCCCCCCCCC(=O)*; Myristoyl = CCCCCCCCCCCCCC(=O)*

A short description of data set [1]: Cytotoxicity, XTT viability, non-cancer cells. The conditions noted are these: mouse, non-cancer cell line, 24 h incubation, read-out: LC50, 3T3. Format: cell-based. As for the experimental part: (§1) Prostate cancer cell lines (CL1 and 22RV1; ATCC, USA) were grown in RPMI-1640 supplemented with 10% FCS (Biological Industries, Beit Haemek, Israel). N1H-3T3 mouse fibroblast cell line (ATCC, USA) was grown in DMEM supplemented with 10% bovine serum. To test cytotoxicity against the cancer cells, aliquots of medium containing 1×10^4 cells were distributed into a 96-well plate (Falcon). After one day, the media were replaced with 90 μl of fresh media and 10 μl of a solution containing different concentrations of the peptides. The plate was then incubated for 24 h before adding to each well 50 μl of XTT reaction solution (Biological Industries, Beit Haemek, Israel); viability was determined as previously described (Papo et al., (2003) J. Biol. Chem. 278:21018-23). The LC50 (concentration at which 50% of the cells die) for each peptide was obtained from the dose-dependent cell viability curves.

The subject of data set [2] is Prostate cancer cell line 22RV1. As to the kind of experiment: Cytotoxicity, XTT viability. The conditions noted are these: 24 h incubation, read-out: LC50, Prostate cancer 22RV1. The format is cell-based, human. As for the experimental part:
as §1
Background: Tetrazolium assays rely on reduction of a dye to a coloured formazan, in cell work by metabolically active cells.

For data set [3], the system named is Prostate cancer cell line CL1. Kind of data set: Cytotoxicity, XTT viability. The format is cell-based, human. The conditions noted are these: 24 h incubation, read-out: LC50, Prostate cancer CL1. As for the experimental part: as §1
A short description of data set [4]: Resistance to proteolytic digestion, intact lipopeptide by HPLC. The format is in vitro ADME. The conditions noted are these: human, elastase from human leukocytes; 140 μM lipopeptide, 25 μM protease, 30 min at 37° C., PBS pH 7.3. As for the experimental part: (§2) Equal amounts of the lipopeptides were dissolved in PBS (35 mM phosphate buffer/0.15 M NaCl, pH 7.3) to yield a final concentration of 140 μM to which 25 μM of either pepsin (from porcine stomach mucosa, Sigma), trypsin (from bovine pancreas, Sigma), or elastase (from human leukocytes, Sigma) were added. The samples were incubated under agitation for 30 min at 37° C. After addition of the appropriate protease inhibitor to stop the reaction, aliquots of the proteolytic digest were injected to C18 HPLC column and the amounts of the intact lipopeptide were evaluated using their absorbance at 215 nm.

Data set [5] in a line: in vitro. The format is in vitro ADME, bovine. The following applies: isolated enzyme trypsin, pH 7.3. On the procedure: as §2
Data set [6] is described as follows: in vitro. The following applies: pig, isolated enzyme pepsin, pH 7.3. Format: in vitro ADME, porcine. On the procedure: as §2
The subject of data set [7] is Candida albicans ATCC 10231. Kind of data set: microbe, parasite or virus in culture. Format: cell-based. The conditions noted are these: ATCC 10231, pH 7.4. In a few lines: (§3)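 MIC = lowest concentration giving 100% growth inhibition by A620 after 24-48 h at 35 °C with agitation. Inoculum: 1×10^4 CFU/ml (pre-mix) in RPMI 1640/0.165 M MOPS; pH 7.4 by default, 5.5 where noted. Peptide as twofold dilution series in water.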

Data set [8] concerns Cryptococcus neoformans ATCC 66031. Kind of data set: microbe, parasite or virus in culture. The format is cell-based. The following applies: ATCC 66031, pH 7.4. The method in brief: as §3
Data set [9] deals with Enterococcus faecalis ATCC 29212. The format is cell-based. The conditions noted are these: ATCC 29212, pH 7.4. The method in brief:
(§4)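 Lipopeptides were serially diluted 2-fold in water and combined with an equal volume of bacterial suspension (1×10^6 CFU/ml) in LB medium, normally at pH 7.4. Plates were incubated 18-20 h at 37° C, absorbance at 600 nm was measured, and the MIC was taken as the concentration fully inhibiting growth.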

Data set [10] concerns Pseudomonas aeruginosa ATCC 27853. The format is cell-based. The conditions noted are these: ATCC 27853, pH 7.4. The method in brief: as §4
In data set [11] the test system is Escherichia coli ATCC 25922. The format is cell-based. The following applies: ATCC 25922, pH 7.4. The method in brief:
as §4

Data set [12] has as its system Acinetobacter baumannii ATCC 19606. The format is cell-based. The conditions noted are these: ATCC 19606, pH 7.4. In a few lines: as §4
For data set [13], the system named is methicilin-resistant Staphylococcus aureus (MRSA) ATCC 700698. The format is cell-based. The conditions noted are these: ATCC 700698, pH 7.4. In a few lines:
as §4

Data set [14] has as its system Enterobacter cloacae ATCC 49141. The format is cell-based. The following applies: ATCC 49141, pH 7.4. The method in brief: as §4
The test system of data set [15] is Staphylococcus aureus ATCC 6538P. Format: cell-based. The conditions noted are these: ATCC 6538, pH 7.4. In a few lines: as §4
The test system of data set [16] is vancomycin-resistant Enterococcus faecium (VRE) ATCC 700221. Format: cell-based. In a few lines: as §4
The test system of data set [17] is Aspergillus flavus ATCC 9643. The format is cell-based. The conditions noted are these: ATCC 9643, pH 7.4.
Data set [18] deals with Aspergillus niger ATCC 9642. Format: cell-based. The conditions noted are these: ATCC 9642, pH 7.4. On the procedure:
The antifungal activity of the lipopeptides was examined in sterile 96-well plates (Nunc F96 microtiter plates) in a final volume of 200 μL as follows: 100 µl of a suspension containing fungi at a concentration of 1×10^4 Colony-Forming Units (CFU)/ml in culture medium (RPMI 1640, 0.165 M MOPS with L-glutamine, without NaHCO3) at pH 7.4 or pH 5.5 (adjustment of the pH was done by diluted solutions of HCl and NaOH) were added to 100 μl of water containing the peptide in serial 2-fold dilutions in water. The fungi were incubated in the presence of the lipopeptides for 24-48 h at 35° C. in a Binder KB115 incubator under agitation. Growth inhibition was determined by measuring the absorbance at 620 nm with a Microplate autoreader E1309 (Bio-Tek Instruments). Antifungal activity is expressed as the minimal inhibitory concentration (MIC), the concentration at which 100% inhibition of fungi growth was observed after the incubation time mentioned above. The fungi used were: Aspergillus niger ATCC 9642, Candida albicans ATCC 10231 and Cryptococcus neoformans ATCC 66031. If not indicated otherwise, the fungi growth was detected at pH 7.4.

In data set [19] the test system is Cryptococcus neoformans ATCC MYA-422. Kind of data set: microbe, parasite or virus in culture. Format: cell-based. The following applies: ATCC MYA-422, pH 7.4.
The test system of data set [20] is Aspergillus fumigatus ATCC 26430. Kind of data set: microbe, parasite or virus in culture. Format: cell-based. The conditions noted are these: ATCC 26430, pH 7.4.
In data set [21] the test system is B. subtilis ATCC 6051. Format: cell-based. The following applies: ATCC 6051, pH 7.4.

As to `CC(C)C[C@@H](N)C(=O)N[C@@H](CCCNC(=N)N)C(=O)N[C@@H](CCCNC(=N)N)C(=O)N[C@H](CC(C)C)C(=O)N[C@H](CC(C)C)C(=O)N[C@@H](CCCNC(=N)N)C(=O)N[C@@H](CCCNC(=N)N)C(=O)N[C@H](CC(C)C)C(=O)N[C@H](CC(C)C)C(=O)N[C@@H](CCCNC(=N)N)C(=O)N[C@@H](CCCNC(=N)N)C(=O)N[C@H](CC(C)C)C(N)=O` [DL6R6, LRRLLRRLLRRL, reference compound] (H-[dL]RR[dL][dL]RR[dL][dL]RR[dL]-NH2; N-terminus assumed), in [1], the CC50 at 24 h is > 100 µM. Further, the CC50 was 50 µM in data set [2] and > 100 µM in data set [3].
For the compound `CCCCCCCCCCCCCC(=O)N[C@H]1CSSC[C@@H](C(N)=O)NC(=O)[C@@H](CCCCN)NC(=O)CNC(=O)CNC(=O)[C@@H](CCCCN)NC(=O)CNC(=O)CNC(=O)CNC(=O)[C@@H](CCCCN)NC(=O)CNC(=O)CNC(=O)CNC(=O)[C@@H](CCCCN)NC1=O` [lipopeptide 16] (Myristoyl-C[dK]GGG[dK]GGG[dK]GG[dK]C-NH2; disulfide 1-14), the metabolised at 0.5 h, 140 μM in data set [4], in data set [5] and in [6] was 0% in each case.
As to `CCCCCCCCCCCCCCCC(=O)N[C@H](CCCCN)C(=O)NCC(=O)NCC(=O)NCC(=O)N[C@H](CCCCN)C(=O)NCC(=O)NCC(=O)NCC(=O)N[C@H](CCCCN)C(=O)NCC(=O)NCC(=O)N[C@H](CCCCN)C(N)=O` [lipopeptide 2, (CH3—(CH2)14—CO—)-D-Lys-Gly-Gly-Gly-D-Lys-Gly-Gly-Gly-D-Lys-Gly-Gly-D-Lys-NH2] (Palmitoyl-[dK]GGG[dK]GGG[dK]GG[dK]-NH2), the “Minimal Inhibitory Concentration, C. albicans ATCC 10231” value in data set [7] is 3.125 µM. Further, the MIC in data set [7] (read-out: Minimal Inhibitory Concentration, Candida Albicans (ATCC 10231)) is reported as 3.125 µM (≈ 3.83 µg/mL). In addition, the “Minimal Inhibitory Concentration, C. neoformans ATCC 66031” value in data set [8] came to 6.25 µM. For the same compound, the “Minimal Inhibitory Concentration, E. faecalis” value in data set [9] was found to be 12.5 µM. In addition, in data set [10], the “Minimal Inhibitory Concentration, P. Aeruginosa” value amounted to 6.25 µM and the “Minimal Inhibitory Concentration, P. aeruginosa ATCC 27853” value was 6.25 µM. For the same compound, in data set [11], the “Minimal Inhibitory Concentration, E. coli” value amounted to 25 µM and the “Minimal Inhibitory Concentration, E. coli (ATCC 25922)” value was 25 µM. In data set [12], the “Minimal Inhibitory Concentration, A. Baumaannii” value worked out at 25 µM and the “Minimal Inhibitory Concentration, A. baumannii ATCC 19606” value was found to be 25 µM. For the same compound, the “Minimal Inhibitory Concentration, S. aureus (MRSA)” value in data set [13] came to 12.5 µM. For the same compound, the “Minimal Inhibitory Concentration, E. cloacae” value in [14] was 25 µM. Besides, in [15], the “Minimal Inhibitory Concentration, S. aureus” value was 12.5 µM and the “Minimal Inhibitory Concentration, S. aureus ATCC 6538P” value was 12.5 µM. Besides, the “Minimal Inhibitory Concentration, E. faecium (VRE)” value in data set [16] (ATCC 700221, pH 7.4) came out at 3.125 µM. Moreover, the “activity against VRE” value in data set [16] (in words, summary of Table 4) was “highly active”. Further, the “Minimal Inhibitory Concentration, Aspergillus flavus (ATCC 9643)” value in [17] was determined as 100 µM. Besides, the “Minimal Inhibitory Concentration, Aspergillus niger (ATCC 9642)” value in data set [18] is 6.25 µM. Also, the “Minimal Inhibitory Concentration, Cryptococcus neoformans (ATCC MYA-422)” value in [19] turned out to be 6.25 µM. For the same compound, in data set [20], the “Minimal Inhibitory Concentration, A. fumigatus ATCC 26430” value is 12.5 µM and the “Minimal Inhibitory Concentration, Aspergillus fumigatus (ATCC 26430)” value turned out to be 12.5 µM. For the same compound, the “Minimal Inhibitory Concentration, B. subtilis (ATCC 6051)” value in data set [21] worked out at 3.125 µM.
`CCCCCCCCCCCCCC(=O)N[C@H]1CSSC[C@@H](C(N)=O)NC(=O)[C@H](CCCCN)NC(=O)CNC(=O)CNC(=O)[C@H](CCCCN)NC(=O)CNC(=O)CNC(=O)CNC(=O)[C@H](CCCCN)NC(=O)CNC(=O)CNC(=O)CNC(=O)[C@H](CCCCN)NC1=O` [lipopeptide 19] (Myristoyl-CKGGGKGGGKGGKC-NH2; disulfide 1-14): the metabolised at 0.5 h, 140 μM in [4], in data set [5] and in [6] was 100% in each case.

(Values after patent US8445636B2, “Antimicrobial and anticancer lipopeptides” (Yeda Research & Development Co. Ltd., priority 2003, dated 2013).)
